In brackets after ≈: the same amount, converted by molar mass.

For data set [1] the following is noted: ref Scifinder, 2015; Chemspider; cited from earlier work.
Data set [2] deals with CpomOR1. Put plainly: Single sensillum recordings, CpomOR1 expressed in Drosophila at1 OSNs. Format: cell-based, Cydia pomonella. To be noted: 10 μg per stimulus. The source says:
To perform heterologous expression in D. melanogaster OSNs, CpomORs were amplified using primers in Table 2 and purified PCR products were cloned into the PCR8/GW/TOPO plasmid (Invitrogen) following the recommended protocol. Cassettes with inserts were then transferred from their PCR8/GW/TOPO plasmids to the destination vector (pUASg-HA.attB, constructed by E. Furger and J. Bischof, kindly provided by the Basler group, Zürich), using the Gateway LR Clonase II kit (Invitrogen). The integrity and orientation of inserts was confirmed by sequencing (Sanger sequencer, 3730xl). Transformant UAS-CpomOR3 and UAS-CpomOR1 lines were generated by Best Gene (Chino Hills, CA, USA), using the PhiC31 integrase system, while the transformant UAS-CpomOR6a line was generated in our labs. Briefly, recombinant pUASg-HA.attB-CpomOR plasmids were injected into embryos of a D. melanogaster line containing an attP insertion site within the third chromosome (genotype y1 M{vas-int.Dm}ZH-2A w*; M{3xP3-RFP.attP}ZH-86Fb), leading to non-random integration. To drive expression of CpomORs in at1 OSNs in place of the endogenous receptor Or67d, transformant UAS-CpomOR lines were crossed to the knock-in Or67d^GAL4 line (kindly provided by Barry Dickson) to generate double homozygous lines w^+;UAS-CpomOR; Or67d^GAL4. Additionally, to drive expression of CpomOR3 in ab3A OSNs, the UAS-CpomOR3 line was crossed to the Δhalo;Or22a-Gal4 mutant line[20][57]. To verify insertion of UAS-CpomORs constructs into the genome, gDNA was extracted and used as template in PCR with primers for the full ORF of CpomORs (Table 2).
CpomOR1 and CpomOR6a expressed in at1 OSNs, and CpomOR3 expressed in ab3A OSNs, were tested through single sensillum recordings (SSR). Three to 8-day-old flies were immobilized in 100 μL pipette tips with only the top half of the head protruding. The left antenna of each insect was gently pushed with a glass capillary against a double-sided adhesive tape placed on a piece of glass. This piece of glass and the pipette tip were fixed with dental wax on a microscope slide. Electrolytically sharpened tungsten electrodes (Harvard Apparatus Ltd, Edenbridge, United Kingdom) were used to penetrate the insect´s body. The reference electrode was manually inserted in the right eye of the fly, while the recording electrode was manoeuvred with a DC-3K micromanipulator equipped with a PM-10 piezo translator (Märzhäuser Wetzler GmbH, Wetzler, Germany) and inserted at the base of the determined sensilla. Signals coming from the olfactory sensory neurons were amplified 10 times with a probe (INR-02, Syntech, Hilversum, the Netherlands), digitally converted through an IDAC-4-USB (Syntech) interface, and visualized and analysed with the software Autospike v. 3.4 (Syntech). A constant flow of 0.65 m/s of humidified air (charcoal-filtered) was delivered through a glass tube to the antenna. The panel of odorants was given to the insect by inserting pipettes containing a piece of filter paper with the correspondent stimulus in a lateral hole of the glass tube and puffing a flow of 2.5 mL of air during 0.5 s through the pipette. For CpomOR1 and CpomOR6a the panel of odorants was prepared by applying 10 μL of a solution of 1.0 μg/μL of the compounds in Supplementary Dataset S2 and Supplementary Dataset S3, for a total amount of 10 μg per stimulus. In the case of CpomOR3, a similar dilution process was used for the dose response experiments of ethyl-(E,Z)-2,4-decadienoate and methyl-(E,Z)-2,4-decadienoate, as well for dose response of experiments of codlemone acetate in CpomOR6a. Compounds were diluted from concentrations ranging from 0.01 ng/μL to 10 μg/μL in decadic steps, allowing reaching concentrations from 100 pg to 100 μg per stimulus when 10 μL of the dilution was applied in the piece of filter paper. […]

As for `C=C(C)C1CC=C(C=O)CC1` (centres unmarked) [1,8-p-menthadien-7-al (perillaldehyde), 1,8-p-menthadien-7-al], in data set [1], the LogP (in general, the decadic logarithm of the partition coefficient of the neutral form, usually between octanol and water) is 3.053 ± 0.335; the Solubility – broadly, how much of the substance goes into solution per volume – was 6.1 mM (≈ 916 µg/mL).

As for `CCCCCCCCO` [1-octanol], the LogP in data set [1] was 2.876±0.177.

For `CCCCCO` [1-pentanol], in data set [1], the LogP is on record as 1.348±0.176 and the “Solubility (M)” value is listed as 0,24 M.

Regarding `CCC(C)CO` (centres unmarked) [2-methyl-1-butanol], the LogP in data set [1] was 1.192±0.187.

With `CC(C)CCC(=O)c1ccoc1` [3-(4-methyl-1-oxopentyl)furan-], in data set [1], the log partition coefficient (LogP) is recorded as 2.851 ± 0.318 and the “Solubility” value was 2.1 mM (≈ 349 µg/mL).

With `CC(C)CCO` [3-methyl-1-butanol], in data set [1], the LogP is 1.192±0.187 and the “Solubility (M)” value was 0,34 M.

`C=CCc1ccc(OC)cc1` [4-Allylanisole]: in data set [1], the lipophilicity (LogP) is listed as 3.088±0.223.

Consider `CC(C)c1ccc(O)cc1` [4-isopropyl phenol], for which, in data set [1], the LogP is 2.986±0.200 and the “Solubility (M)” value is given as 0,015 M.

On to `CC(=O)CCC=C(C)C` [6-methyl-5-hepten-2-one], for which, in data set [1], the lipophilicity (LogP) is reported as 1.947±0.238 and the “Solubility” value is 52 mM (≈ 6560 µg/mL).

In the case of `C=C(C)[C@@H]1CCC2=CC(=O)C[C@@H](C)[C@]2(C)C1` [(+)-nootkatone], in data set [1], the LogP was 3.765±0.275 and the “Solubility (M)” value is given as 2,40E-04 M.

Turning to `CCC/C=C/C=O` [(E)-2-hexenal], in data set [1], the log partition coefficient (LogP) is 1.790±0.281 and the “Solubility (M)” value is 0,09 M.

In the case of `C/C=C\C/C=C/CCCCCCCCOC(C)=O` [(Z9,E12)-14:Ac], the Spikes/s in data set [2] (replicate 1) is reported as 2 Spikes/s; in data set [2] (replicate 2), -4 Spikes/s; in data set [2] (replicate 3), 2 Spikes/s; in data set [2] (replicate 4), -10 Spikes/s; in data set [2] (replicate 5) it was 0 Spikes/s.

In the case of `CC/C=C\CCO` [(Z)-3-hexenol], the “Solubility” value in data set [1] is 140 mM (≈ 14000 µg/mL).

`O=Cc1ccccc1` [benzaldehyde]: in data set [1], the LogP is 1.452±0.242 and the “Solubility (M)” value is reported as 0,02 M.

On to `COCc1ccccc1` [benzyl methyl ether], for which, in data set [1], the lipophilicity (LogP) is on record as 1.843±0.239 and the “Solubility (M)” value is 0,05 M.

As to `CC(C)(C)c1ccc(CCC=O)cc1` [bourgeonal], in data set [1], the lipophilicity (LogP) is 3.486±0.245 and the “Solubility (M)” value is 4,50E-04 M.

For `CCCCCC(=O)OCCCC` [butyl hexanoate], the Spikes/s in data set [2] (replicate 1) was 4 Spikes/s; in data set [2] (replicate 2) it was -4 Spikes/s; in data set [2] (replicate 3), 2 Spikes/s; in data set [2] (replicate 4), 0 Spikes/s; in data set [2] (replicate 5), -8 Spikes/s.

`O=C1CCCCC1` [cyclohexanone]: in data set [1], the LogP is 0.821±0.251 and the “Solubility” value was 150 mM (≈ 14700 µg/mL).

In the case of `CCCc1ccc(O)c(OC)c1` [dihydro eugenol, 2-methoxy-4-propylphenol], in data set [1], the lipophilicity (LogP) was 2.943±0.224 and the “Solubility (M)” value is reported as 6,00E-03 M.

For `C=CCc1ccc(O)c(OC)c1` [eugenol], the LogP in data set [1] is 2.403±0.236.

Regarding `CC(C)=CCC/C(C)=C/CO` [geraniol], the LogP in data set [1] was 2.942±0.271.

For `CC(C=O)Cc1ccc2c(c1)OCO2` (centres unmarked) [helional], in data set [1], the LogP was 1.982±0.343.

With `O=Cc1ccc2c(c1)OCO2` [heliotropin], in data set [1], the LogP was 1.050±0.302.

Take `CCCCCCCOC(=O)CCC` [heptyl butyrate]: the LogP in data set [1] is 4.352±0.206.

Turning to `C/C=C/c1ccc2c(c1)OCO2` [isosafrol], in data set [1], the LogP is listed as 3.904±0.349 and the “Solubility (M)” value is recorded as 5,90E-04 M.

With `COC(=O)c1ccccc1` [methyl benzoate], in data set [1], the “Solubility (M)” value is listed as 0,02 M.

As to `C=CCc1ccc(OC)c(OC)c1` [methyl eugenol], the log partition coefficient (LogP) in data set [1] was 2.655±0.243.

Consider `CCCCC(=O)OC` [methyl valerate], for which the LogP in data set [1] was 1.804±0.205.

On to `C/C=C/c1ccc(OC)c(OC)c1` [methyl-iso-eugenol], for which, in data set [1], the LogP is reported as 3.049±0.239 and the “Solubility” value was 3.6 mM (≈ 642 µg/mL).

In the case of `O=CCc1ccccc1` [phenyl acetaldehyde], in data set [1], the LogP is listed as 1.760±0.224 and the “Solubility (M)” value is on record as 0,016 M.

`NCCc1ccccc1` [phenylethylamine]: in data set [1], the LogP is reported as 1.435±0.189 and the “Solubility (M)” value is 0,085 M.

As for `CC(=O)OCC=C(C)C` [prenyl acetate], in data set [1], the lipophilicity (LogP) is on record as 2.017±0.274 and the “Solubility (M)” value is 0,069 M.

For `CCC/C=C/C=O` [trans-2-hexenal], the LogP in data set [1] is on record as 1.790±0.281.

In the case of `COc1cc(C=O)ccc1O` [vanillin], the “Solubility (M)” value in data set [1] is recorded as 0,024 M.

On to `C/C1=C\CC/C(C)=C/CC(C)(C)/C=C/C1` [α-humulene], for which, in data set [1], the LogP is 6.592±0.249 and the “Solubility (M)” value is on record as 1,10E-08 M.

(Values after paper PMC5259778, “Candidate pheromone receptors of codling moth Cydia pomonella respond to pheromones and kairomones” (Scientific Reports, 2017).)
